The source of these data is publication doi:10.1101/2024.08.13.607785v1 (biorxiv, 2024).

Assay [1] has as its target Calcium/calmodulin-dependent protein kinase kinase 2 ; CAMKK2 ; Q96RR4 (Homo sapiens, UniProt Q96RR4). Kind of assay: biochemical. Details: species or system human cell line lysate.
The target in assay [2] is T1, Discoidin domain-containing receptor 2 ; DDR2 ; Q16832 (Homo sapiens, UniProt Q16832).
T1 sequence (Q16832 1-855): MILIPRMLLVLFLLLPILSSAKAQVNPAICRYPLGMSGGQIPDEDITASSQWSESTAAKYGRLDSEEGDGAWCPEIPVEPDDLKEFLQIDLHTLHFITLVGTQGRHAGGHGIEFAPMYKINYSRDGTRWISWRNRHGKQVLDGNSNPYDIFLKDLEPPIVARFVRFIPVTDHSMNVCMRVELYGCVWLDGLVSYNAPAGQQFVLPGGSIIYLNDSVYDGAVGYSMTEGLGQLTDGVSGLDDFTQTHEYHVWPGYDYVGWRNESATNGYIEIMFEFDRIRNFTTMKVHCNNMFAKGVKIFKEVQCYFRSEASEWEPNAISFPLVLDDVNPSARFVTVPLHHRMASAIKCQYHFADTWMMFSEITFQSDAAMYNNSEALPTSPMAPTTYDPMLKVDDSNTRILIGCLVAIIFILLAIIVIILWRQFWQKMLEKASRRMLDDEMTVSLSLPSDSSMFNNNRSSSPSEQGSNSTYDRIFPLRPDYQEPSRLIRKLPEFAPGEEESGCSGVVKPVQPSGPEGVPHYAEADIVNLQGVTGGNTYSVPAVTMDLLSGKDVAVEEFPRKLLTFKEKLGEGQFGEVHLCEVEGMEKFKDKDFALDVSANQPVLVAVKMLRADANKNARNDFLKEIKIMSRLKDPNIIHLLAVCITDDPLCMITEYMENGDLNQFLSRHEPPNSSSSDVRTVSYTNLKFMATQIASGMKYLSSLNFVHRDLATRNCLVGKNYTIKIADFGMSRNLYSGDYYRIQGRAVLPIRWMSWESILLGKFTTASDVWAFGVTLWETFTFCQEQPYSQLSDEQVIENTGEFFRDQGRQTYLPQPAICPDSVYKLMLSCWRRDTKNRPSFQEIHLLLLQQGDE
Kind of assay: biochemical. Details: species or system human cell line lysate.

Assay [3] has as its target Epithelial discoidin domain-containing receptor 1 ; DDR1 ; Q08345 (Homo sapiens, UniProt Q08345). Kind of assay: biochemical. Details: species or system human cell line lysate.
Assay [4] concerns the target High affinity nerve growth factor receptor ; NTRK1 ; P04629 (Homo sapiens, UniProt P04629). Kind of assay: biochemical. Details: species or system human cell line lysate.
For assay [5], the target named is Isoform 2 of Cyclin-dependent kinase 17 ; CDK17 ; Q00537-2 (Homo sapiens, UniProt Q00537). The experiment in a line: biochemical. Details: species or system human cell line lysate.
The target in assay [6] is Isoform 4 of TRAF2 and NCK-interacting protein kinase ; TNIK ; Q9UKE5-4 (Homo sapiens, UniProt Q9UKE5). The experiment in a line: biochemical. Details: species or system human cell line lysate.
Assay [7] addresses Cyclin-dependent kinase 7 ; CDK7 ; P50613 (Homo sapiens, UniProt P50613). Kind of assay: biochemical. Details: species or system human cell line lysate.
Assay [8] has as its target T2, Ephrin type-B receptor 1 ; EPHB1 ; P54762 (Homo sapiens, UniProt P54762).
T2 sequence (P54762 1-984): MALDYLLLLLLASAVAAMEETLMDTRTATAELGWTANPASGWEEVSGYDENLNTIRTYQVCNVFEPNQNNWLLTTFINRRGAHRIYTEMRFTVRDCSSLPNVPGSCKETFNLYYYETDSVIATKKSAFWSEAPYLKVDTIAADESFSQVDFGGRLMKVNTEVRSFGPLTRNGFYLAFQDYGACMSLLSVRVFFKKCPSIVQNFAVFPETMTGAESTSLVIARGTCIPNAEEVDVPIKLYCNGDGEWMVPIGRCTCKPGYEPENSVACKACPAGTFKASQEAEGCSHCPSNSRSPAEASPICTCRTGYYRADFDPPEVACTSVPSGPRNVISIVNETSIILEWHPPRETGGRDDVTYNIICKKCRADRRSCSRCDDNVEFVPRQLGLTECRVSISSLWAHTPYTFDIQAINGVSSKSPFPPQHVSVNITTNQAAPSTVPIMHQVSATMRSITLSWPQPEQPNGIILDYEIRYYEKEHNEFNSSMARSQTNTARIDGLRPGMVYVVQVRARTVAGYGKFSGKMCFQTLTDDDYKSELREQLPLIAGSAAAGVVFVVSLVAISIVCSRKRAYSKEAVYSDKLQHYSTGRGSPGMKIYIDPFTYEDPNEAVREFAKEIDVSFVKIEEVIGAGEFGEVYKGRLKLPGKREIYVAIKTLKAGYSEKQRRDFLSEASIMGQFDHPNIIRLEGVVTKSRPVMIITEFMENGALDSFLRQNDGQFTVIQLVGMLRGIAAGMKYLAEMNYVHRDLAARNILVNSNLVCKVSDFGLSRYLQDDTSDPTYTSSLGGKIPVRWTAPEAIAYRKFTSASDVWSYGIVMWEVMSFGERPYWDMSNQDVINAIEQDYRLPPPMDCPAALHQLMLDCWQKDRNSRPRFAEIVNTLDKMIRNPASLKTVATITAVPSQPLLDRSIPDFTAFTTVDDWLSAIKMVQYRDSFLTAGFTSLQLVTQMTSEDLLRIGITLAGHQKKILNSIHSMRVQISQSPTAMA
Details: species or system mixed lysate of K562, MV4-11, THP-1, NCI-H1155. The settings on record: DIA-MS residual binding; binder.

For assay [9], the target named is Isoform 6 of Tyrosine-protein kinase ABL2 ; ABL2-6 ; P42684-6 (Homo sapiens, UniProt P42684). Details: species or system mixed lysate of K562, MV4-11, THP-1, NCI-H1155. The settings on record: DIA-MS residual binding; binder.
Assay [10] addresses Mitogen-activated protein kinase 14 ; MAPK14 ; Q16539 (Homo sapiens, UniProt Q16539). Details: species or system mixed lysate of K562, MV4-11, THP-1, NCI-H1155. Conditions: DIA-MS residual binding; binder.

Chain of Isoform 6 of Tyrosine-protein kinase ABL2 ; ABL2-6 ; P42684-6 (P42684 whole entry, canonical isoform): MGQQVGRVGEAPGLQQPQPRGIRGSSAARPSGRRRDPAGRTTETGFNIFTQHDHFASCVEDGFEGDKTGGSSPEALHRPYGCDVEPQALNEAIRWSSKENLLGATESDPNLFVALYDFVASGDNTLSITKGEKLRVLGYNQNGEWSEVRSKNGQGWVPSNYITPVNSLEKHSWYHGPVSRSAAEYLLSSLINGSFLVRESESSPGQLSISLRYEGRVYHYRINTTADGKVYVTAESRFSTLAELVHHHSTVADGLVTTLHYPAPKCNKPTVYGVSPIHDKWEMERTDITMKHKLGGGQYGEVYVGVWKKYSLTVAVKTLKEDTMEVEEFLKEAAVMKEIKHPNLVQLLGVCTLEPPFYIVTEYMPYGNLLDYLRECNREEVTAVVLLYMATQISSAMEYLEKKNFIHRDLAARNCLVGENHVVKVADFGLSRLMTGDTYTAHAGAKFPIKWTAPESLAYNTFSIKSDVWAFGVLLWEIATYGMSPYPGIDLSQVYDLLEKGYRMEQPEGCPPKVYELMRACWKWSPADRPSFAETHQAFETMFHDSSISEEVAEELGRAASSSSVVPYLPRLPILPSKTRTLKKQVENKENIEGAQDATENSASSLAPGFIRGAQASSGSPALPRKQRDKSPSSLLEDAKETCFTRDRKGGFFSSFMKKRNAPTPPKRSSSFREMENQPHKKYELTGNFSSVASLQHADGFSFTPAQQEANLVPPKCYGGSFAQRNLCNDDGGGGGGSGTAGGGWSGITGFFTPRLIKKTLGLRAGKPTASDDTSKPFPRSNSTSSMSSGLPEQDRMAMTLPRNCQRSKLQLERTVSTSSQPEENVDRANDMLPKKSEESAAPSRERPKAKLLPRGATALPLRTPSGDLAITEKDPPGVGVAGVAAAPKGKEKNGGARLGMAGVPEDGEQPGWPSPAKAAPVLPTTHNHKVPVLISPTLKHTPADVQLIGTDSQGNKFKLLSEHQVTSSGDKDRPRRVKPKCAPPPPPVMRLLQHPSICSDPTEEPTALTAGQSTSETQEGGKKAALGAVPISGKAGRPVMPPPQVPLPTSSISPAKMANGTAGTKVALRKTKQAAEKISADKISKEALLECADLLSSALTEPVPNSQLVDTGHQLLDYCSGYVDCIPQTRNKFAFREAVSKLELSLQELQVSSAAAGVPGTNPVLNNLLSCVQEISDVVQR
Chain of Mitogen-activated protein kinase 14 ; MAPK14 ; Q16539 (Q16539 whole entry): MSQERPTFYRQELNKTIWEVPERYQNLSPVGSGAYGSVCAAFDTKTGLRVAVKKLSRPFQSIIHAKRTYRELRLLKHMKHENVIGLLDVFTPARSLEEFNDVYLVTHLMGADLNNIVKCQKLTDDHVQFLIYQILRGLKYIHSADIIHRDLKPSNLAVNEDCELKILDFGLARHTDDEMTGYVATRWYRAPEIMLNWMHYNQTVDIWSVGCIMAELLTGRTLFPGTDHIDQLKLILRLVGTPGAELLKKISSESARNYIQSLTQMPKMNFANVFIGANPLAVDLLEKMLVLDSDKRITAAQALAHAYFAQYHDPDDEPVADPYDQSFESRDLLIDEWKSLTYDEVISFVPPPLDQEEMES
Chain of Isoform 2 of Cyclin-dependent kinase 17 ; CDK17 ; Q00537-2 (Q00537 whole entry, canonical isoform, one chain of several): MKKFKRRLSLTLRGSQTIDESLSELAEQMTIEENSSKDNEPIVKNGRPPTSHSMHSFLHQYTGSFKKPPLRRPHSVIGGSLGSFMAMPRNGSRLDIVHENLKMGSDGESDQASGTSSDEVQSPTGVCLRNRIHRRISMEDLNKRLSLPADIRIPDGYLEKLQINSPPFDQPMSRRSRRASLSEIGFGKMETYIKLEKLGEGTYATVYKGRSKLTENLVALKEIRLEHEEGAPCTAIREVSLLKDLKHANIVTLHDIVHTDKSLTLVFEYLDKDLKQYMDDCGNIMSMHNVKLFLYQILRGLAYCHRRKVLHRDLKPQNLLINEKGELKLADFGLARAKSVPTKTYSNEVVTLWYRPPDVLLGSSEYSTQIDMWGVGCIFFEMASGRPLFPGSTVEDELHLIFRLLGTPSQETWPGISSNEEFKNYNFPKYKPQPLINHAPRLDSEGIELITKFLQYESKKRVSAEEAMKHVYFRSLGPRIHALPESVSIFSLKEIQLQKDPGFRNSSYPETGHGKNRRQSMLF
Chain of Epithelial discoidin domain-containing receptor 1 ; DDR1 ; Q08345 (Q08345 whole entry, the tested form may be a part): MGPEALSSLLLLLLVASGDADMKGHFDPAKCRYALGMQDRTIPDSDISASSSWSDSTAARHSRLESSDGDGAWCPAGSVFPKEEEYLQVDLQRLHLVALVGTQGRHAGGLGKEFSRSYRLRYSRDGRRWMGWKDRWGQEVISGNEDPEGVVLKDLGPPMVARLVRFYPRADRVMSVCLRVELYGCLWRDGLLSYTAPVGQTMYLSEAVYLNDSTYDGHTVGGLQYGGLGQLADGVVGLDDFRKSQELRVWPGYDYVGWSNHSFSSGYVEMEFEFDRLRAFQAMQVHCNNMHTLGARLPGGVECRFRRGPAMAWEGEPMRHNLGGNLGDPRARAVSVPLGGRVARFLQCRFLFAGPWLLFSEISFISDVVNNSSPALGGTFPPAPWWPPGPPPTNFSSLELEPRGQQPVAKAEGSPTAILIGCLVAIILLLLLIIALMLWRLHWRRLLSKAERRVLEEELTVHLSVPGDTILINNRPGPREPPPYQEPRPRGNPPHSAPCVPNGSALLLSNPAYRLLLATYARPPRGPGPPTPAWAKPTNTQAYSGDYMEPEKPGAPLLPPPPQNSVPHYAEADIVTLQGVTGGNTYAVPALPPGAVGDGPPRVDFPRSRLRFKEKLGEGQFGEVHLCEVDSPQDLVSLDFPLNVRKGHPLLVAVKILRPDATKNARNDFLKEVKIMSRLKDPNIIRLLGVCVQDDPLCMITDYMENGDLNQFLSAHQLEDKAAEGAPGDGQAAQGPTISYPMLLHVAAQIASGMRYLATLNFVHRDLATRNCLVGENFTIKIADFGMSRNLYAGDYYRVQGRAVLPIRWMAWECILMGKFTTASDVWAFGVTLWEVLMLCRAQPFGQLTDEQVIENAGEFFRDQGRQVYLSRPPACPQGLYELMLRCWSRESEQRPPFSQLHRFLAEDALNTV
Chain of Isoform 4 of TRAF2 and NCK-interacting protein kinase ; TNIK ; Q9UKE5-4 (Q9UKE5 whole entry, canonical isoform, one chain of several): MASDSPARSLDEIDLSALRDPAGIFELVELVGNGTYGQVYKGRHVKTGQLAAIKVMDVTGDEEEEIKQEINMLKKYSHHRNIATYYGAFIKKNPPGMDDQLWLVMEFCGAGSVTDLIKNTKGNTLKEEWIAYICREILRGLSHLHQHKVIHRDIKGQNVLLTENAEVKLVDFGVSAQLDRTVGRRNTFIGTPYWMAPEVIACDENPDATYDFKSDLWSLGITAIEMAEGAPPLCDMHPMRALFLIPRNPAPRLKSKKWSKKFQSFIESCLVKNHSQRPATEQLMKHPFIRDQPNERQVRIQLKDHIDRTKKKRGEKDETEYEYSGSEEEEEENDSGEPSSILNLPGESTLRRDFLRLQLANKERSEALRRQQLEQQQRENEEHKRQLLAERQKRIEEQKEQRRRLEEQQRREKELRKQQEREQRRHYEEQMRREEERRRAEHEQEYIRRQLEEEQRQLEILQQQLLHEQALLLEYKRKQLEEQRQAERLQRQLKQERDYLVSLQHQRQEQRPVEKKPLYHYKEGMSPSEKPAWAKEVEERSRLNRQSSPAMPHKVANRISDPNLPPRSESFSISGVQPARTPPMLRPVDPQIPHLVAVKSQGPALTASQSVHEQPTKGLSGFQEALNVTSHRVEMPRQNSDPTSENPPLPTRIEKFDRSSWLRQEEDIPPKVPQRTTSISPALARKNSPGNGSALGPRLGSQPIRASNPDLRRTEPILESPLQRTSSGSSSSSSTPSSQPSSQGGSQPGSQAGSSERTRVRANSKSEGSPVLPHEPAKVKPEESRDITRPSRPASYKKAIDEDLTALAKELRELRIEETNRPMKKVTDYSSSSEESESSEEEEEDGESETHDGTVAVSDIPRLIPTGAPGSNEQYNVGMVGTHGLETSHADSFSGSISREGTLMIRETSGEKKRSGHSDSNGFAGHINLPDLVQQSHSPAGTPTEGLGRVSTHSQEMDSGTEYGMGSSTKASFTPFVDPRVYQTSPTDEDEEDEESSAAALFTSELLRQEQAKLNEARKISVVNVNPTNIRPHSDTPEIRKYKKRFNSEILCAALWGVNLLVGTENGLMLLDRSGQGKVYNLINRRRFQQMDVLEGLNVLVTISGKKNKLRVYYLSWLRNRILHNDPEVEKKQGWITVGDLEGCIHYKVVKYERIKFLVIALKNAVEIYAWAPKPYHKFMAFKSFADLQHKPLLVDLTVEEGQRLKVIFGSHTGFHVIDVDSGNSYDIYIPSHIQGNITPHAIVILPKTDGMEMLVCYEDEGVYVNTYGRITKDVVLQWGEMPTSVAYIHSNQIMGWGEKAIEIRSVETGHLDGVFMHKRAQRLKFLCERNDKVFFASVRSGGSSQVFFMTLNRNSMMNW
Chain of Calcium/calmodulin-dependent protein kinase kinase 2 ; CAMKK2 ; Q96RR4 (Q96RR4 whole entry, the tested form may be a part, one chain of several): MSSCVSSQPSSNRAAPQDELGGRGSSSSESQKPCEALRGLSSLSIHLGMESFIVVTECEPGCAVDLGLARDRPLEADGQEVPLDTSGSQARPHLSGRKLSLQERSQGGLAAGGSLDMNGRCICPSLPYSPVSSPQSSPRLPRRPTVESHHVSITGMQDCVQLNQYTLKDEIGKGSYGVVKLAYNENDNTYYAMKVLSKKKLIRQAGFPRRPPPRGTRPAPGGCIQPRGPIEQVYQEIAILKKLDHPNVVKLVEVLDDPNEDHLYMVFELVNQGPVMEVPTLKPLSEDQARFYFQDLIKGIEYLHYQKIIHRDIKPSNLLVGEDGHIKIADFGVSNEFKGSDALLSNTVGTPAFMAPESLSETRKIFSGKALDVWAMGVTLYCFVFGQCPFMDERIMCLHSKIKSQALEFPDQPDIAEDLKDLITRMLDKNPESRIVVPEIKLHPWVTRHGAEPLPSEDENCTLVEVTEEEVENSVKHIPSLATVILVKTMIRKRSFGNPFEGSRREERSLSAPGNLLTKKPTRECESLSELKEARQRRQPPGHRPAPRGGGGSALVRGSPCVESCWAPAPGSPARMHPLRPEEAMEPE

A word on the IC50: it is the concentration that gives 50% inhibition. `COc1cc(F)ccc1-c1ncnc(Nc2cccc(C[S@](C)(=N)=O)c2)n1` [BAY-1143572]: the concentration for half-maximal inhibition (IC50) in assay [1], in assay [2], in assay [3], in assay [4], in assay [5] and in assay [6] was above 10 µM each time.

For `COc1cc(F)ccc1-c1cc(Nc2cc(CS(C)(=N)=O)ccn2)ncc1F` (stereo not shown) [BAY-1251152], the concentration for half-maximal inhibition (IC50) in [7] was above 10 µM.

For `Cc1nc(Nc2ncc(C(=O)Nc3c(C)cccc3Cl)s2)cc(N2CCN(CCO)CC2)n1` [dasatinib], the “DIA-MS / % Intensity (30 µM/DMSO)” value in assay [8] was determined as 6.728%; in assay [9], 0.2688%; in assay [10] it was 32.28%.
